# Laboratory results: patent publication US20130245116A1, “COMPOSITIONS AND METHODS FOR THE DISRUPTION OF MYCOBACTERIUM BIOFILM” (priority 2011, published 2013)
# System: M. smegmatis mc^2155 biofilm
# Assay: Assay for M. smegmatis biofilm inhibition (pellicle formation in M63 medium)
# Type: cell-based
# Procedure: Two ml of 7H9/ADC culture medium was inoculated with […] of a starter culture of M. smegmatis mc^2155 in 40% glycerol and incubated at 37° C. without shaking for 16-24 hr. This culture was transferred into 10 ml of GAS medium and incubated in the incubator/shaker at 37° C. to an absorbance at 650 nm of <1.5, diluted to an absorbance of 0.02-0.03 in M63 culture medium. Then aliquots of 2.0 ml of this inoculated M63 medium were placed in sterile 1.5×10-cm glass tubes and the purified compounds to be tested were added. The test tubes were incubated in the heat block at 37° C. for 3 to 7 days. Pellicles began to form at the air-liquid interface of control culture on day-2, the pellicle thickened and cells began climbing up the surface of the glass. Such pellicles are recognized as biofilm. In the biofilm inhibition assay, the purified compounds dissolved in CM (2:1) were added at zero time and the development of biofilm was recorded on day-3 and -4.
# In the biofilm inhibition assay, control culture began developing a smooth surface growth after two days and the cells began to climb up the wall of the tube. The surface growth continued and thickened over days-4 and -5. There was no observable submerged growth in the M63 medium over this period. […] After this period, rough surface pellicles began to appear along with some submerged growth (planktonic growth).
Substance,biological activity in M. smegmatis biofilm inhibition assay (concentration not given),concentration for complete inhibition of M. smegmatis biofilm formation [µg/mL]
"Trehalose monomycolate [TMM, reference compound]",not active,
C16:3-fatty acyl-/C25-mycocerosyl-phthiotriol diester,,12.5
